59 compounds from patent US10538520B2, “Benzamide and nicotinamide compounds and methods of using same” (OncoTartis Inc., priority 2013, dated 2020) can be followed below.

For one test, the system named is U-937. Put plainly: Cytotoxicity towards U-937 cell line. It counts as cell-based. The conditions noted are these: Homo sapiens. Here is the method:
(§1) In various embodiments, the compounds of the disclosure are those in which show IC50 values in cytotoxicity experiments towards cells lines MV4-11 and U937 of >20 μM, 10-20 μM, 5-10 μM, 1-5 μM, or <1 μM.
(§2) The IC50 is divided into 5 categories: A<1 μM, B 1-5 μM, C 5-10 μM, D 10-20 μM, and E>20 μM.

A further test deals with MV4-11. The experiment in a line: Cytotoxicity towards MV4-11 cell line. It counts as cell-based. Conditions: Homo sapiens. As to the method:
as §1, §2

SMILES strings stand for the structures. Where only a bound is given, the exact number is not on record here.

As for `O=C(NCCCc1cn[nH]c1)c1ccc(-c2ccncc2)c(C#Cc2ccc(F)cc2)c1` [TT-03582], the IC50 in the test on U-937 and in the test on MV4-11 was < 1 µM each time.

On to `O=C(NCCCn1ccnc1)c1ccc(-n2cccn2)cc1` [TT-03071], for which the half-maximal inhibitory concentration (IC50) in the test on U-937 and in the test with MV4-11 was 1 to 5 µM in each case.

Take `O=C(NCCCc1cn[nH]c1)c1ccc(-n2cccn2)c(C#Cc2ccccc2)c1` [TT-02715]: the IC50 in the test with U-937 and in the test with MV4-11 was < 1 µM each time.

`Cn1ccnc1CNC(=O)c1ccc(-n2cccn2)c(C#Cc2ccccc2)c1` [TT-02713]: the IC50 (usually the concentration needed to halve the response being measured) in the test with U-937 is < 1 µM; in the test with MV4-11 it was > 20 µM.

Regarding `O=C(NCc1ccco1)c1ccc(-n2cccn2)c(C#Cc2cccnc2)c1` [TT-02931], the IC50 was 10 to 20 µM with U-937 and > 20 µM in the test on MV4-11.

`O=C(NCCCn1ccnc1)c1ccc(-n2cccn2)c(C#Cc2ccc(F)cc2)c1` [TT-02746]: the IC50 in the test with U-937 and in the test with MV4-11 was < 1 µM throughout.

Take `O=C(NCCCc1cn[nH]c1)c1ccc(-n2cccn2)c(C#Cc2cccnc2)c1` [TT-03303]: the concentration for half-maximal inhibition (IC50) in the test on U-937 and with MV4-11 was < 1 µM in each case.

Regarding `O=C(NCCCc1cn[nH]c1)c1ccc(N2CCCCCC2)c(C#Cc2ccc(F)cc2)c1` [TT-03589], the IC50 in the test on U-937 and with MV4-11 was < 1 µM each time.

Take `O=C(NCCCc1cn[nH]c1)c1ccc(N2CCOC(CN3CCCCC3)C2)c(C#Cc2ccc(F)cc2)c1` (stereo not shown) [TT-03669]: the 50% inhibitory concentration (IC50) in the test with U-937 and in the test on MV4-11 was < 1 µM in each case.

Take `O=C(NCCCc1cn[nH]c1)c1ccc(-n2cccn2)c(C#Cc2ccccc2Cl)c1` [TT-03321]: the IC50 in the test with U-937 and with MV4-11 was < 1 µM in each case.

As to `O=C(NCCCc1cn[nH]c1)c1ccc(-n2cccn2)c(C#Cc2ccc3nccn3c2)c1` [TT-03620], the IC50 in the test on U-937 and in the test with MV4-11 was < 1 µM in each case.

Take `O=C(Nc1ccc(Cn2ccnc2)cc1)c1ccc(-n2cccn2)c(C#Cc2ccccc2)c1` [TT-02690]: the IC50 lay in the range of 10 to 20 µM in the test on U-937 and 5 to 10 µM in the test on MV4-11.

As to `O=C(NCCCn1ccnc1)c1ccc(-n2cccn2)c(C#Cc2cccnc2)c1` [TT-03264], the IC50 in the test on U-937 and in the test on MV4-11 was < 1 µM throughout.

On to `O=C(NCCCn1ccnc1)c1ccc(-n2cccn2)c(C#Cc2cccc(F)c2)c1` [TT-03217], for which the IC50 in the test on U-937 and in the test with MV4-11 was < 1 µM each time.

In the case of `O=C1CN(c2ccc(C(=O)NCCCc3cn[nH]c3)cc2C#Cc2ccc(F)cc2)CCN1` [TT-03671], the IC50 in the test with U-937 and in the test on MV4-11 was < 1 µM throughout.

With `O=C(NCCCn1ccnc1)c1cc(C#Cc2ccccc2)c2nccn2c1` [TT-02760], the IC50 with U-937 and with MV4-11 was 10 to 20 µM each time.

Take `O=C(NCCCN1CCOCC1)c1ccc(-n2cccn2)c(C#Cc2cccnc2)c1` [TT-02936]: the half-inhibitory concentration (IC50) in the test on U-937 and in the test with MV4-11 was > 20 µM each time.

For the compound `Cc1cc(C)n(CCNC(=O)c2ccc(-n3cccn3)c(C#Cc3ccccc3)c2)n1` [TT-02927], the values for the IC50 in the test on U-937 and in the test with MV4-11 were 5 to 10 µM and 10 to 20 µM, respectively.

As to `CC(CNC(=O)c1ccc(-n2cccn2)c(C#Cc2ccccc2)c1)n1cncn1` (stereo not shown) [TT-02930], the IC50 in the test with U-937 and in the test with MV4-11 was > 20 µM in each case.

For the compound `Cc1nn(-c2ccc(C(=O)NCCc3cnccn3)cc2C#Cc2ccccc2)c(C)c1C` [TT-02942], the IC50 in the test with U-937 is 5 to 10 µM; with MV4-11 it was > 20 µM.

Turning to `O=C(NCCCn1ccnc1)c1ccc(-n2cccn2)c(C#Cc2ccccn2)c1` [TT-02695], the IC50 with U-937 and in the test on MV4-11 was < 1 µM in each case.

For `Cc1nccn1CCN(C)C(=O)c1ccc(-n2cccn2)c(C#Cc2ccccc2)c1` [TT-02797], the IC50 with U-937 and with MV4-11 was > 20 µM throughout.

Take `Cc1ccn(CCNC(=O)c2ccc(-n3cccn3)c(C#Cc3ccccc3)c2)n1` [TT-02692]: the IC50 in the test with U-937 is < 1 µM; in the test on MV4-11, > 20 µM.

As to `CN(C)c1ccc(C(=O)NCCCn2ccnc2)cc1C#Cc1ccccc1` [TT-03252], the IC50 with U-937 and in the test with MV4-11 was < 1 µM throughout.

Turning to `C[C@@H]1CN(c2ncc(C(=O)NCCCc3cn[nH]c3)cc2C#Cc2ccc(F)cc2)C[C@H](C)O1` [TT-03750], the IC50 with U-937 and in the test with MV4-11 was < 1 µM each time.

In the case of `O=C(NCCc1nccs1)c1ccc(-n2cccn2)c(C#Cc2ccccc2)c1` [TT-02707], the figures for the half-maximal inhibitory concentration (IC50) with U-937 and in the test with MV4-11 were < 1 µM and > 20 µM, respectively.

In the case of `CN1CCN(c2ccc(C(=O)NCCCc3cn[nH]c3)cc2C#Cc2ccc(F)cc2)CC1` [TT-03598], the IC50 in the test on U-937 and in the test on MV4-11 was < 1 µM each time.

As to `O=C(NCCCc1cn[nH]c1)c1ccc(N2CCOCC2)c(C#Cc2ccc(Cl)nc2)c1` [TT-03655], the IC50 in the test with U-937 and with MV4-11 was < 1 µM throughout.

As for `CCc1nnc(NC(=O)c2ccc(-n3cccn3)c(C#Cc3cccnc3)c2)s1` [TT-02932], the IC50 in the test on U-937 and in the test with MV4-11 was > 20 µM in each case.

For `O=C(NCCCn1ccnc1)c1ccc(-n2cnnc2)c(C#Cc2ccccc2)c1` [TT-02731], the half-maximal inhibitory concentration (IC50) in the test on U-937 and in the test with MV4-11 was < 1 µM throughout.

On to `O=C(NCCCc1cn[nH]c1)c1ccc(-c2cccnc2)c(C#Cc2ccccc2)c1` [TT-03245], for which the IC50 with U-937 and in the test with MV4-11 was < 1 µM each time.

Take `O=C(NCCCc1cn[nH]c1)c1ccc(-n2cccn2)c(C#Cc2ccncc2)c1` [TT-03304]: the IC50 in the test on U-937 and in the test on MV4-11 was < 1 µM each time.

With `CC1CN(c2ncc(C(=O)NCCCc3cn[nH]c3)cc2C#Cc2ccc(F)cc2)CCN1C(=O)OC(C)(C)C` (stereo not shown) [TT-03772], the IC50 in the test with MV4-11 is < 1 µM.

For `CCc1nnc(NC(=O)c2ccc(-n3cccn3)c(C#Cc3ccccn3)c2)s1` [TT-02948], the concentration for half-maximal inhibition (IC50) with U-937 and with MV4-11 was > 20 µM throughout.

For the compound `COC1CCCN(c2ncc(C(=O)NCCCc3cn[nH]c3)cc2C#Cc2ccc(F)cc2)C1` (stereo not shown) [TT-03762], in the test on MV4-11, the IC50 is < 1 µM.

Take `Cn1cnnc1C1CCN(C(=O)c2ccc(-n3cccn3)c(C#Cc3ccccc3)c2)C1` (stereo not shown) [TT-02803]: the IC50 in the test with U-937 is < 1 µM; with MV4-11, > 20 µM.

With `O=C(NCCCc1cn[nH]c1)c1ccc(Oc2ccccc2)c(C#Cc2ccccc2)c1` [TT-03233], the IC50 with U-937 and with MV4-11 was < 1 µM each time.

Turning to `O=C(NCCCc1cn[nH]c1)c1ccc(N2CCNCC2)c(C#Cc2ccc(F)cc2)c1` [TT-03597], the IC50 in the test on U-937 and in the test with MV4-11 was < 1 µM each time.

On to `O=C(NCCCc1cn[nH]c1)c1ccc(N2CCC(O)CC2)c(C#Cc2ccc(F)cc2)c1` [TT-03587], for which the IC50 in the test with U-937 and with MV4-11 was < 1 µM each time.

On to `O=C(NCCn1cncn1)c1ccc(-n2cccn2)c(C#Cc2ccccc2)c1` [TT-02804], for which the IC50 was < 1 µM with U-937 and > 20 µM in the test on MV4-11.

`Cc1nn(-c2ccc(C(=O)NCCc3c[nH]cn3)cc2C#Cc2ccccc2)c(C)c1C` [TT-02949]: the IC50 in the test with U-937 fell in the range of 5 to 10 µM; in the test on MV4-11, 10 to 20 µM.

With `C[C@@H]1CN(c2ccc(C(=O)NCCCn3ccnc3)cc2C#Cc2ccc(F)cc2)C[C@H](C)O1` [TT-03727], the IC50 in the test with U-937 and in the test on MV4-11 was < 1 µM throughout.

Regarding `NC(=O)c1cccc(C#Cc2cc(C(=O)NCCCc3cn[nH]c3)ccc2-n2cccn2)c1` [TT-03625], the IC50 with U-937 and in the test with MV4-11 was < 1 µM in each case.

`Cn1cnc(CNC(=O)c2ccc(-n3cccn3)c(C#Cc3ccccc3)c2)c1` [TT-02721]: the IC50 in the test with U-937 and in the test on MV4-11 was > 20 µM throughout.

As to `Cc1nccn1CCCNC(=O)c1ccc(N2CCN(CCOCCOCCOCCN)CC2)c(C#Cc2ccc(F)cc2)c1` [TT-03749], the IC50 fell in the range of 10 to 20 µM with U-937 and 1 to 5 µM with MV4-11.

On to `O=C(NCCCn1ccnc1)c1ccc(CN2CCc3ccccc3C2)cc1` [TT-01902], for which the 50% inhibitory concentration (IC50) in the test with U-937 was in the range of 5 to 10 µM; with MV4-11, 10 to 20 µM.

In the case of `C[C@@H]1CN(c2ccc(C(=O)N[C@@H]3CC[C@@H](n4ccnc4)[C@@H]3O)cc2C#Cc2ccc(F)cc2)C[C@H](C)O1` [TT-03733], the IC50 was 1 to 5 µM with U-937 and < 1 µM in the test on MV4-11.

Regarding `O=C(NCCCc1cn[nH]c1)c1ccc(-c2ccncc2)c(C#Cc2ccccc2)c1` [TT-03246], the IC50 in the test with U-937 and in the test with MV4-11 was < 1 µM throughout.

Take `O=C(NCCCc1cn[nH]c1)c1ccc(-n2cccn2)c(C#CC2(O)CCCCC2)c1` [TT-03351]: the IC50 with U-937 and in the test on MV4-11 was 5 to 10 µM throughout.

Regarding `O=C(NCCCc1cn[nH]c1)c1ccc(-n2cccn2)c(C#Cc2ccc(F)cn2)c1` [TT-03569], the IC50 in the test with U-937 and with MV4-11 was < 1 µM each time.

As to `O=C(NCc1cccnc1)c1ccc(-n2cccn2)c(C#Cc2cccnc2)c1` [TT-02944], the IC50 in the test with U-937 is 10 to 20 µM; in the test with MV4-11 it was > 20 µM.

As for `O=C(NCCCn1ccnc1)c1ccc(-n2cccn2)c(C#Cc2cccc(O)c2)c1` [TT-03312], the IC50 with U-937 and with MV4-11 was < 1 µM in each case.

With `O=C(NCCCc1cn[nH]c1)c1ccc(N2CCCC(CO)C2)c(C#Cc2ccc(F)cc2)c1` (stereo not shown) [TT-03595], the IC50 in the test with U-937 and in the test with MV4-11 was < 1 µM in each case.

For `O=C(NCCCn1ccnc1)c1ccc(-n2cccn2)c(C#Cc2ccncc2)c1` [TT-03305], the IC50 in the test on U-937 and with MV4-11 was < 1 µM each time.

For the compound `Cc1ccc(C#Cc2cc(C(=O)NCCCc3cn[nH]c3)ccc2-n2cccn2)cc1` [TT-03201], the IC50 with U-937 and in the test on MV4-11 was < 1 µM throughout.

In the case of `CC1CN(c2ncc(C(=O)NCCCc3cn[nH]c3)cc2C#Cc2ccc(F)cc2)CCN1` (stereo not shown) [TT-03756], the IC50 in the test with MV4-11 is < 1 µM.

Take `O=C1CN(c2ncc(C(=O)NCCCc3cn[nH]c3)cc2C#Cc2ccc(F)cc2)CCN1` [TT-03768]: the IC50 in the test on MV4-11 was < 1 µM.

For `CC1CC(C)CN(c2ncc(C(=O)NCCCc3cn[nH]c3)cc2C#Cc2ccc(F)cc2)C1` (stereo not shown) [TT-03761], the IC50 in the test with MV4-11 was < 1 µM.

As to `O=C(NCCCc1cn[nH]c1)c1cnc(N2CCOCC2)c(C#Cc2ccc(F)cc2)c1` [TT-03767], the half-inhibitory concentration (IC50) in the test on MV4-11 is < 1 µM.
